Reference: patent US20250319073A1, “COMPOSITIONS AND METHODS FOR THE TREATMENT OF HUNTINGTON’S DISEASE AND HTT PROTEINOPATHIES” (priority 2022, published 2025)

Key:
R6/2 mice = experiment: Open field test in R6/2 mice; assay type: in vivo, mouse; details: 12 weeks of age
Protocol: Study Summary—A total of 46 male R6/2 mice and 15 male wild-type littermate control mice (WT) were used in the study. The mice were genotyped and the R6/2 mice were divided into different treatment groups based on their pre-treatment body weight. The treatment with Compound (Ia) (0.5 or 5 mg/kg; 10 ml/kg, intraperitoneally (i.p.), QD) or Vehicle (10 ml/kg, i.p., QD) was started at 4 weeks of age. Body weights were measured before the treatment onset and continued twice a week until the end of the study. Fine motor kinematic analysis and rotarod test were performed at 10 weeks of age and the open field activity and clasping behavior were measured at 12 weeks of age for all mice. At 8 and 12 weeks of age the glucose uptake was measured by ^18F-FDG PET and the striatal metabolites were measured using MR spectroscopy for 9-10 mice per group. […] The blood samples were used to prepare peripheral blood mononuclear cells (PBMCs) on which the flow cytometry/luminescence analysis was performed for following assays: mitochondrial reactive oxygen species (ROS) (MitoSox), and ATP levels (Cell TiterGlow). […]
Open Field Test—At 12 weeks of age all mice were subjected to open field test. […] Mice were placed in the center of the chamber and their behavior was recorded for 30 min in 5-min bins. […]

[1] = system: Peripheral Blood Mononuclear Cells (PBMC); experiment: CellTiter-Glo 2.0 ATP level assay in PBMCs of treated mice; assay type: in vivo, mouse; details: R6/2 mice, 0.5 mg/kg / 5 mg/kg i.p. QD, PBMCs collected at 13 weeks of age
Protocol: Euthanasia & Sample Collection—At 13 weeks of age, 9 mice per group were euthanized by deep anesthesia with sodium pentobarbital (180 mg/kg). The remaining mice were euthanized and any samples were not collected, except the tail and ear samples. A terminal blood sample (as much as possible) was collected by cardiac puncture into a syringe. The whole blood was placed in Li-Hep tube at RT and used immediately for preparation of PBMCs. The whole brain was collected and fresh frozen in liquid nitrogen and stored at −80° C. Blood was collected also from extra animals as staining controls for the flow cytometry assays (n=3 extra animals per day). […]
PBMC Extraction—Whole blood (approximately 400-500 μL) was stored at room temperature (RT) before the start of the PBMC isolations. […] Right before measurement 1 μL of propidium iodide was added and the cell number and viability was determined by MACSquant Analyzer 10 flow cytometer. […]
The cells were analyzed immediately after the staining using the MACSQuant Analyzer 10 (Miltenyi Biotec) and Cytation 3 (Cell titerglow). […]
ATP Levels: CellTiter-Glo 2.0® Assay—The CellTiter-Glo® 2.0 Assay provides a homogeneous method to determine the number of viable cells in culture by quantitating the amount of ATP present, which indicates the presence of metabolically active cells. […]
• 1. […] Place 50,000 cells/well white walled luminescence suitable plate in DPBS. • 3. […]

Cc1cc(O)cc(C)c1C[C@H](NC(=O)[C@H](N)CCCNC(=N)N)C(=O)N[C@@H](CCCCN)c1nc(Cc2ccccc2)no1.Cl.Cl [Compound (Ia), (R)-2-amino-N—((S)-1-(((S)-5-amino-1-(3-benzyl-1,2,4-oxadiazol-5-yl)pentyl)amino)-3-(4-hydroxy-2,6-dimethylphenyl)-1-oxopropan-2-yl)-5-guanidinopentanamide]
total distance traveled in the open field compared to vehicle treated R6/2 mice (R6/2 mice; 5 mg/kg i.p. QD, p<0.05, One-way ANOVA): traveled longer total distance | total rearing frequency in the open field, between R6/2 groups (R6/2 mice; 0.5 or 5 mg/kg i.p. QD, p>0.05, One-way ANOVA): no significant differences | ATP levels (Cell Titer Glow) in PBMCs, R6/2+Vehicle vs treated R6/2 [1]: no significant differences
